Source: PMC4767141, “Discovery of Potent, Orally Bioavailable, Small-Molecule Inhibitors of WNT Signaling from a Cell-Based Pathway Screen” (Journal of Medicinal Chemistry, 2015)

How the values were obtained:
[1] = biological target: T1, A3 (h) (Homo sapiens, UniProt P0DMS8); assay: CEREP binding panel; settings: agonist radioligand, read-out: % Inhibition of Control Specific Binding
T1 construct: purchased Millipore KinaseProfiler (kinases); Cerep (receptors and ion channels)

[2] = tested on: α1 (non-selective); assay: CEREP binding panel; settings: 10 μM, antagonist radioligand
[3] = biological target: T2, AT1 (h) (Homo sapiens, UniProt P30556); assay: CEREP binding panel; settings: antagonist radioligand, read-out: % Inhibition of Control Specific Binding
T2 construct: purchased Millipore KinaseProfiler (kinases); Cerep (receptors and ion channels)

[4] = biological target: T3, H2 (h) (Homo sapiens, UniProt P25021); assay: CEREP binding panel; settings: antagonist radioligand, read-out: % Inhibition of Control Specific Binding
T3 construct: purchased Millipore KinaseProfiler (kinases); Cerep (receptors and ion channels)

[5] = biological target: T4, MT1 (ML1A) (h) (Homo sapiens, UniProt P48039); assay: CEREP binding panel; settings: agonist radioligand, read-out: % Inhibition of Control Specific Binding
T4 construct: purchased Millipore KinaseProfiler (kinases); Cerep (receptors and ion channels)

[6] = biological target: T5, Y2 (h) (Homo sapiens, UniProt P49146); assay: CEREP binding panel; settings: agonist radioligand, read-out: % Inhibition of Control Specific Binding
T5 construct: purchased Millipore KinaseProfiler (kinases); Cerep (receptors and ion channels)
T5 sequence (P49146 whole entry): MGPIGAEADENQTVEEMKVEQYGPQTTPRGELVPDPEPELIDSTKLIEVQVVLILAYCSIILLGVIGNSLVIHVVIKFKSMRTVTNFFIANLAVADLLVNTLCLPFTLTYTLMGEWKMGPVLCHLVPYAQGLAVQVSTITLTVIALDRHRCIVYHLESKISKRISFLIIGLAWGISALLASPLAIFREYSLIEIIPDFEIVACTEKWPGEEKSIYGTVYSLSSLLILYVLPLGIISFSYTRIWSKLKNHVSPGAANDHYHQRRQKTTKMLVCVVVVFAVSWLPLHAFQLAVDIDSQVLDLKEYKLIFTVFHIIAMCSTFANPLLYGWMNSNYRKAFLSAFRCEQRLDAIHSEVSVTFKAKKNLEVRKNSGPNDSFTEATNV

[7] = biological target: T6, BTK (Homo sapiens, UniProt Q06187); assay: Millipore kinase panel; assay type: biochemical; settings: read-out: % Control
T6 construct: purchased Millipore KinaseProfiler (kinases); Cerep (receptors and ion channels)
T6 sequence (Q06187 whole entry): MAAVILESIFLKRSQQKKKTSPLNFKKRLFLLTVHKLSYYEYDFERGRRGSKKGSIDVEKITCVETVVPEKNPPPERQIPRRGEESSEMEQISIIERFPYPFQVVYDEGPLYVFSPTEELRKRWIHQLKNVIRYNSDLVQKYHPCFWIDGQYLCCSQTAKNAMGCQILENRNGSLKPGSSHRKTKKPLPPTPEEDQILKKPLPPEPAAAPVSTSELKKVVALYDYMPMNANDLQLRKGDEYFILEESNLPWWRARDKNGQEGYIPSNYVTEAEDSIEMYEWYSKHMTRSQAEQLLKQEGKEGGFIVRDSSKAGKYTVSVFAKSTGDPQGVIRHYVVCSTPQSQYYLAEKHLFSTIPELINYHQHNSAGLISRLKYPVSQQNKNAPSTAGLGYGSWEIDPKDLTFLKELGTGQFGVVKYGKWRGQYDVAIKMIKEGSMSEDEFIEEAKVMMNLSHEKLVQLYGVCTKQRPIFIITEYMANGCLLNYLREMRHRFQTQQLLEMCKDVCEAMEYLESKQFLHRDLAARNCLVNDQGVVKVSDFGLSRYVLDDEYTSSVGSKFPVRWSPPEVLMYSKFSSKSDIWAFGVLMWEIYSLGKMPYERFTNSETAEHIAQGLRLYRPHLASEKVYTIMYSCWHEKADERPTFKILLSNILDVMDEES

[8] = biological target: T7, CDK9/CYCLINT1 (Homo sapiens, UniProt P50750); assay: Millipore kinase panel; assay type: biochemical; settings: read-out: % Control
T7 construct: purchased Millipore KinaseProfiler (kinases); Cerep (receptors and ion channels)

[9] = biological target: T8, CHK1 (Homo sapiens, UniProt O14757); assay: Millipore kinase panel; assay type: biochemical; settings: read-out: % Control
T8 construct: purchased Millipore KinaseProfiler (kinases); Cerep (receptors and ion channels)

[10] = biological target: T9, DMPK (Homo sapiens, UniProt Q09013); assay: Millipore kinase panel; assay type: biochemical; settings: read-out: % Control
T9 construct: purchased Millipore KinaseProfiler (kinases); Cerep (receptors and ion channels)

[11] = biological target: T10, EPHA3 (Homo sapiens, UniProt P29320); assay: Millipore kinase panel; assay type: biochemical; settings: read-out: % Control
T10 construct: purchased Millipore KinaseProfiler (kinases); Cerep (receptors and ion channels)

[12] = biological target: T11, EPHB3 (Homo sapiens, UniProt P54753); assay: Millipore kinase panel; assay type: biochemical; settings: read-out: % Control
T11 construct: purchased Millipore KinaseProfiler (kinases); Cerep (receptors and ion channels)

[13] = biological target: T12, FER (Homo sapiens, UniProt P16591); assay: Millipore kinase panel; assay type: biochemical; settings: read-out: % Control
T12 construct: purchased Millipore KinaseProfiler (kinases); Cerep (receptors and ion channels)

[14] = biological target: T13, FGFR1 (Homo sapiens, UniProt P11362); assay: Millipore kinase panel; assay type: biochemical; settings: read-out: % Control
T13 construct: purchased Millipore KinaseProfiler (kinases); Cerep (receptors and ion channels)

[15] = biological target: T14, FYN (Homo sapiens, UniProt P06241); assay: Millipore kinase panel; assay type: biochemical; settings: read-out: % Control
T14 construct: purchased Millipore KinaseProfiler (kinases); Cerep (receptors and ion channels)

[16] = biological target: T15, HIPK1 (Homo sapiens, UniProt Q86Z02); assay: Millipore kinase panel; assay type: biochemical; settings: read-out: % Control
T15 construct: purchased Millipore KinaseProfiler (kinases); Cerep (receptors and ion channels)

[17] = biological target: T16, HIPK2 (Homo sapiens, UniProt Q9H2X6); assay: Millipore kinase panel; assay type: biochemical; settings: read-out: % Control
T16 construct: purchased Millipore KinaseProfiler (kinases); Cerep (receptors and ion channels)

[18] = biological target: T17, IKKBETA (Homo sapiens, UniProt O14920); assay: Millipore kinase panel; assay type: biochemical; settings: read-out: % Control
T17 construct: purchased Millipore KinaseProfiler (kinases); Cerep (receptors and ion channels)

[19] = biological target: T18, KDR (Homo sapiens, UniProt P35968); assay: Millipore kinase panel; assay type: biochemical; settings: read-out: % Control
T18 construct: purchased Millipore KinaseProfiler (kinases); Cerep (receptors and ion channels)

[20] = biological target: T19, MAPKAP-K3 (Homo sapiens, UniProt Q16644); assay: Millipore kinase panel; assay type: biochemical; settings: read-out: % Control
T19 construct: purchased Millipore KinaseProfiler (kinases); Cerep (receptors and ion channels)

[21] = biological target: T20, MARK1 (Homo sapiens, UniProt Q9P0L2); assay: Millipore kinase panel; assay type: biochemical; settings: read-out: % Control
T20 construct: purchased Millipore KinaseProfiler (kinases); Cerep (receptors and ion channels)

[22] = biological target: T21, MLCK (Homo sapiens, UniProt Q9H1R3); assay: Millipore kinase panel; assay type: biochemical; settings: read-out: % Control
T21 construct: purchased Millipore KinaseProfiler (kinases); Cerep (receptors and ion channels)

[23] = biological target: T22, MRCKBETA (Homo sapiens, UniProt Q9Y5S2); assay: Millipore kinase panel; assay type: biochemical; settings: read-out: % Control
T22 construct: purchased Millipore KinaseProfiler (kinases); Cerep (receptors and ion channels)

[24] = biological target: T23, NEK7 (Homo sapiens, UniProt Q8TDX7); assay: Millipore kinase panel; assay type: biochemical; settings: read-out: % Control
T23 construct: purchased Millipore KinaseProfiler (kinases); Cerep (receptors and ion channels)
T23 sequence (Q8TDX7 whole entry): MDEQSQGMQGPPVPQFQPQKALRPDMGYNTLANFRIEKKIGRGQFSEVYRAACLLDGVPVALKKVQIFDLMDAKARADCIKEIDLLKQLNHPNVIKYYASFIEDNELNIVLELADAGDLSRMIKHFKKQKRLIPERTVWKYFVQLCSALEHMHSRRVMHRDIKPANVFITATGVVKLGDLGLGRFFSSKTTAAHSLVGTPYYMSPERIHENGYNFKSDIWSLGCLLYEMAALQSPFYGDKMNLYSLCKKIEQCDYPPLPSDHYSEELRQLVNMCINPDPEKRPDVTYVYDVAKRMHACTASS

[25] = biological target: T24, PAK4 (Homo sapiens, UniProt O96013); assay: Millipore kinase panel; assay type: biochemical; settings: read-out: % Control
T24 construct: purchased Millipore KinaseProfiler (kinases); Cerep (receptors and ion channels)

[26] = biological target: T25, PASK (Homo sapiens, UniProt Q96RG2); assay: Millipore kinase panel; assay type: biochemical; settings: read-out: % Control
T25 construct: purchased Millipore KinaseProfiler (kinases); Cerep (receptors and ion channels)
T25 sequence (Q96RG2 whole entry): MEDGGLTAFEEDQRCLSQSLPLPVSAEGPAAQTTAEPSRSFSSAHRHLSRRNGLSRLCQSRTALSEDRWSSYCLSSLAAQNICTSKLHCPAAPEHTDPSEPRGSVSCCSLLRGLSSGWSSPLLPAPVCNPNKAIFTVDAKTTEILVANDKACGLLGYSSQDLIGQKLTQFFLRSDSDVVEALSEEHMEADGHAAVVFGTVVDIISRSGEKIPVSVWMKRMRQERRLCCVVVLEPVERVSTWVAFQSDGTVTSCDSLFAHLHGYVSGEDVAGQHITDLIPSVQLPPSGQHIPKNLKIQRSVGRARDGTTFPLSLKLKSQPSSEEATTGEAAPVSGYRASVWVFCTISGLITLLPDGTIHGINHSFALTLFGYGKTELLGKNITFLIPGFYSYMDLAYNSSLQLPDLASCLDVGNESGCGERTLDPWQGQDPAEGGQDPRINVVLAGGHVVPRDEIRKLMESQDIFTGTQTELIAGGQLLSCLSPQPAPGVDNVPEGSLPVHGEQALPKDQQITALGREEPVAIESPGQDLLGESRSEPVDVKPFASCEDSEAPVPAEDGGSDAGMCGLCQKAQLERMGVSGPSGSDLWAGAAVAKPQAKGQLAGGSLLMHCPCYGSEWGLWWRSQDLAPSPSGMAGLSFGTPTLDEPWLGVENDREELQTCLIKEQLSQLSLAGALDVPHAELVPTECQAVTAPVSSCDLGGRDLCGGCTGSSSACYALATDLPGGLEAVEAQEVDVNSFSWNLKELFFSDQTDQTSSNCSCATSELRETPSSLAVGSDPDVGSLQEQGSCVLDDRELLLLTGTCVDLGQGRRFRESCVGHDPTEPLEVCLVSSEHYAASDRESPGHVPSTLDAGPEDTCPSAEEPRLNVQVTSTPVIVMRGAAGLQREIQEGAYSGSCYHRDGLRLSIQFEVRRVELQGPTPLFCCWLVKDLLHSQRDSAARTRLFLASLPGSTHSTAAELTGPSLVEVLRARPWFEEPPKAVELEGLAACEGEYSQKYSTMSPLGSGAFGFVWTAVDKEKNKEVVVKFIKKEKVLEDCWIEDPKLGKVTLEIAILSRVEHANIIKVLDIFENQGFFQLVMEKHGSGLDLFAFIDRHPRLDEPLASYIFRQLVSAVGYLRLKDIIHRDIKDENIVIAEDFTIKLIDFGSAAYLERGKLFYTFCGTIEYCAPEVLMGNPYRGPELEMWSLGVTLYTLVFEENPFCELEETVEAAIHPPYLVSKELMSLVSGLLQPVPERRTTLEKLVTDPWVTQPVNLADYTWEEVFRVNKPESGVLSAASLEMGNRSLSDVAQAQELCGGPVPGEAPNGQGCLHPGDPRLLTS

[27] = biological target: T26, PDK1 (Homo sapiens, UniProt O15530); assay: Millipore kinase panel; assay type: biochemical; settings: read-out: % Control
T26 construct: purchased Millipore KinaseProfiler (kinases); Cerep (receptors and ion channels)

[28] = biological target: T27, PKG1ALPHA (Homo sapiens, UniProt Q13976); assay: Millipore kinase panel; assay type: biochemical; settings: read-out: % Control
T27 construct: purchased Millipore KinaseProfiler (kinases); Cerep (receptors and ion channels)

[29] = biological target: T28, RET (Homo sapiens, UniProt P07949); assay: Millipore kinase panel; assay type: biochemical; settings: read-out: % Control
T28 construct: purchased Millipore KinaseProfiler (kinases); Cerep (receptors and ion channels)

[30] = biological target: T29, RSE (Homo sapiens, UniProt Q06418); assay: Millipore kinase panel; assay type: biochemical; settings: read-out: % Control
T29 construct: purchased Millipore KinaseProfiler (kinases); Cerep (receptors and ion channels)

[31] = biological target: T30, RSK1 (Homo sapiens, UniProt Q15418); assay: Millipore kinase panel; assay type: biochemical; settings: read-out: % Control
T30 construct: purchased Millipore KinaseProfiler (kinases); Cerep (receptors and ion channels)

[32] = biological target: T31, RSK2 (Homo sapiens, UniProt P51812); assay: Millipore kinase panel; assay type: biochemical; settings: read-out: % Control
T31 construct: purchased Millipore KinaseProfiler (kinases); Cerep (receptors and ion channels)
T31 sequence (P51812 whole entry): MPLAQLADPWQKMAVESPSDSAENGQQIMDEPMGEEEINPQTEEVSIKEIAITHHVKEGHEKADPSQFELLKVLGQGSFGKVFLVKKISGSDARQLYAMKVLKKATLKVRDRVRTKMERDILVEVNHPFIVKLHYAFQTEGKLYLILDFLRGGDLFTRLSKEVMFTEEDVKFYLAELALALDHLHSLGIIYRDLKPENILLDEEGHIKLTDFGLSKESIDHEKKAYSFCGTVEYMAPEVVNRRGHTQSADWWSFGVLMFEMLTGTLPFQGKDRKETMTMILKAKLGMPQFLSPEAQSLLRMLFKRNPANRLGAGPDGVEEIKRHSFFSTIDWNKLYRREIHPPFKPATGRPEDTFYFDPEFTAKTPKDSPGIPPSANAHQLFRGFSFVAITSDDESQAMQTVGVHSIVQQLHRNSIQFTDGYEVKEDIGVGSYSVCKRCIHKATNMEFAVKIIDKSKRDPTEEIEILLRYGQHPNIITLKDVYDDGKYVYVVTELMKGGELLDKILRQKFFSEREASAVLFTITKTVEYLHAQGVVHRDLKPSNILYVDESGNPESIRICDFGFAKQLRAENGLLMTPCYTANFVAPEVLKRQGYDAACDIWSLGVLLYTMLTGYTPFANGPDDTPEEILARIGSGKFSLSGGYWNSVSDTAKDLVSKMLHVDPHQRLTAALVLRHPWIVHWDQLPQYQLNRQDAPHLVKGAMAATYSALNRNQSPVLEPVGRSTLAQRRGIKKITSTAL

[33] = biological target: T32, SAPK2A (Homo sapiens, UniProt Q16539); assay: Millipore kinase panel; assay type: biochemical; settings: read-out: % Control
T32 construct: purchased Millipore KinaseProfiler (kinases); Cerep (receptors and ion channels)
T32 sequence (Q16539 whole entry): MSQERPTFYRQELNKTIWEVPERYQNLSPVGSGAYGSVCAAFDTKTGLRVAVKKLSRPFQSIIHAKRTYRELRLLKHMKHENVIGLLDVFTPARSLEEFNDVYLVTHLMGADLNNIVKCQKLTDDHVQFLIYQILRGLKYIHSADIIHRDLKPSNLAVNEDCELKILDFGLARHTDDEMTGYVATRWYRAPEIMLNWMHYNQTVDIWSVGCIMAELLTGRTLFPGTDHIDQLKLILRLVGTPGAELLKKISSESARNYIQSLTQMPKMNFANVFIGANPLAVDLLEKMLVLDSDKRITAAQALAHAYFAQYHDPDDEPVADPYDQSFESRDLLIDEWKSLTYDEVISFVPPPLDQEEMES

[34] = biological target: T33, SAPK2B (Homo sapiens, UniProt Q15759); assay: Millipore kinase panel; assay type: biochemical; settings: read-out: % Control
T33 construct: purchased Millipore KinaseProfiler (kinases); Cerep (receptors and ion channels)

[35] = biological target: T34, SGK3 (Homo sapiens, UniProt Q96BR1); assay: Millipore kinase panel; assay type: biochemical; settings: read-out: % Control
T34 construct: purchased Millipore KinaseProfiler (kinases); Cerep (receptors and ion channels)

[36] = biological target: T35, SRC (Homo sapiens, UniProt P12931); assay: Millipore kinase panel; assay type: biochemical; settings: read-out: % Control
T35 construct: purchased Millipore KinaseProfiler (kinases); Cerep (receptors and ion channels)
T35 sequence (P12931 whole entry): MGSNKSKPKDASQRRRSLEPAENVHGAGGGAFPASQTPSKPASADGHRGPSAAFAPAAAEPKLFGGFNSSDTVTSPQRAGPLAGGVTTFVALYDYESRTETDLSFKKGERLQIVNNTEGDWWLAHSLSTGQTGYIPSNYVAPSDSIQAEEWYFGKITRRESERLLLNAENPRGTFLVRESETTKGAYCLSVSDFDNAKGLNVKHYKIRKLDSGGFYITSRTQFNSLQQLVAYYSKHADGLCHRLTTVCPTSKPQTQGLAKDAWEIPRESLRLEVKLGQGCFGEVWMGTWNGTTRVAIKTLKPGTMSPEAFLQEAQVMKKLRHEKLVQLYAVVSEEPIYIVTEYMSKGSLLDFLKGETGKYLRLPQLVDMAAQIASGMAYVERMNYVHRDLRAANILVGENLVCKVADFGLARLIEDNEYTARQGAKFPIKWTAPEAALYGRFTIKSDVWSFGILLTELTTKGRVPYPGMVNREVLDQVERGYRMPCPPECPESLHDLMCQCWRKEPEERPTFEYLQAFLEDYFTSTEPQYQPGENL

[37] = biological target: T36, TAK1 (Homo sapiens, UniProt O43318); assay: Millipore kinase panel; assay type: biochemical; settings: read-out: % Control
T36 construct: purchased Millipore KinaseProfiler (kinases); Cerep (receptors and ion channels)
T36 sequence (O43318 1-303 limits assumed): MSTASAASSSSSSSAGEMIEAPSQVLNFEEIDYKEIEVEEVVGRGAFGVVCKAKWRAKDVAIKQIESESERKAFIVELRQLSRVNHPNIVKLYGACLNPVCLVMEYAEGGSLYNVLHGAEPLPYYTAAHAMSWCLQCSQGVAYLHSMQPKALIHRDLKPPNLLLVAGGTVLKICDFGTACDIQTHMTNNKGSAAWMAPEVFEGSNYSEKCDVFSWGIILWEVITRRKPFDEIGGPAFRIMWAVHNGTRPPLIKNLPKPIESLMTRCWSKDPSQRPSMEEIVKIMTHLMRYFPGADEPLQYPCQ

[38] = biological target: T37, WNK2 (Homo sapiens, UniProt Q9Y3S1); assay: Millipore kinase panel; assay type: biochemical; settings: read-out: % Control
T37 construct: purchased Millipore KinaseProfiler (kinases); Cerep (receptors and ion channels)

[39] = biological target: T38, WNK3 (Homo sapiens, UniProt Q9BYP7); assay: Millipore kinase panel; assay type: biochemical; settings: read-out: % Control
T38 construct: purchased Millipore KinaseProfiler (kinases); Cerep (receptors and ion channels)

[40] = biological target: T39, CK1GAMMA1 (Homo sapiens, UniProt Q9HCP0); assay: Millipore kinase panel; assay type: biochemical; settings: read-out: % Control
T39 construct: purchased Millipore KinaseProfiler (kinases); Cerep (receptors and ion channels)

[41] = biological target: T40, CAMKIIBETA (Homo sapiens, UniProt Q13554); assay: Millipore kinase panel; assay type: biochemical; settings: read-out: % Control
T40 construct: purchased Millipore KinaseProfiler (kinases); Cerep (receptors and ion channels)

[42] = biological target: T41, TLK2 (Homo sapiens, UniProt Q86UE8); assay: Millipore kinase panel; assay type: biochemical; settings: read-out: % Control
T41 construct: purchased Millipore KinaseProfiler (kinases); Cerep (receptors and ion channels)

[43] = biological target: T42, CLK2 (Homo sapiens, UniProt P49760); assay: Millipore kinase panel; assay type: biochemical; settings: read-out: % Control
T42 construct: purchased Millipore KinaseProfiler (kinases); Cerep (receptors and ion channels)

[44] = biological target: T43, ULK2 (Homo sapiens, UniProt Q8IYT8); assay: Millipore kinase panel; assay type: biochemical; settings: read-out: % Control
T43 construct: purchased Millipore KinaseProfiler (kinases); Cerep (receptors and ion channels)

T1 sequence (P0DMS8 whole entry): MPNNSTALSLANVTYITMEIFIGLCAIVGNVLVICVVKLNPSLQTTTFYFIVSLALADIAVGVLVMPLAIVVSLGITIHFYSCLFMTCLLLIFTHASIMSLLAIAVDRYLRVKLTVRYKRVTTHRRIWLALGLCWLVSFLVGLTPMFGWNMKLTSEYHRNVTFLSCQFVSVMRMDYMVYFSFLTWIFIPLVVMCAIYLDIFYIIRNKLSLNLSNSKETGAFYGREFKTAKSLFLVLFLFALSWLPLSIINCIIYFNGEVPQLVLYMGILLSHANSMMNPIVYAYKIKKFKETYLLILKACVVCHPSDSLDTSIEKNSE

## Cn1cc(-c2ccc(-c3cncc(Cl)c3N3CCC4(CCNC4=O)CC3)cc2)cn1 [Compound 74, 8-(3-Chloro-5-(4-(1-methyl-1H-pyrazol-4-yl)phenyl)pyridin-4-yl)-2,8-diazaspiro[4.5]decan-1-one]
[1]
  inhibition at 10 µM: 17%
[2]
  % Inhibition of Control Specific Binding: 8%
[3]
  inhibition at 10 µM: 8%
[4]
  inhibition at 10 µM: -2%
[5]
  inhibition at 10 µM: 34%
[6]
  inhibition at 10 µM: -2%
[7]
  remaining activity at 1 µM: -3%
[8]
  remaining activity at 1 µM: -29%
[9]
  remaining activity at 1 µM: -17%
[10]
  remaining activity at 1 µM: 9%
[11]
  remaining activity at 1 µM: 6%
[12]
  remaining activity at 1 µM: -2%
[13]
  remaining activity at 1 µM: 11%
[14]
  remaining activity at 1 µM: -49%
[15]
  remaining activity at 1 µM: 1%
[16]
  remaining activity at 1 µM: 10%
[17]
  remaining activity at 1 µM: -12%
[18]
  remaining activity at 1 µM: 2%
[19]
  remaining activity at 1 µM: 10%
[20]
  remaining activity at 1 µM: 7%
[21]
  remaining activity at 1 µM: 2%
[22]
  remaining activity at 1 µM: 1%
[23]
  remaining activity at 1 µM: -4%
[24]
  remaining activity at 1 µM: 2%
[25]
  remaining activity at 1 µM: 9%
[26]
  remaining activity at 1 µM: 18%
[27]
  remaining activity at 1 µM: -12%
[28]
  remaining activity at 1 µM: 0%
[29]
  remaining activity at 1 µM: 1%
[30]
  remaining activity at 1 µM: -17%
[31]
  remaining activity at 1 µM: -23%
[32]
  remaining activity at 1 µM: -12%
[33]
  remaining activity at 1 µM: 1%
[34]
  remaining activity at 1 µM: 0%
[35]
  remaining activity at 1 µM: -9%
[36]
  remaining activity at 1 µM: -6%
[37]
  remaining activity at 1 µM: 6%
[38]
  remaining activity at 1 µM: 0%
[39]
  remaining activity at 1 µM: -25%
[40]
  remaining activity at 1 µM: -25%
[41]
  remaining activity at 1 µM: 8%
[42]
  remaining activity at 1 µM: -9%
[43]
  remaining activity at 1 µM: -19%
[44]
  remaining activity at 1 µM: -2%
